In patent publication US9745325B2, “Fused heterocyclic compound” (Takeda Pharmaceutical Company Limited, priority 2014, dated 2017):

How the values were obtained:
[1] = system: human multiple myeloma RPMI8226 cells; test: Inhibitory activity against human multiple myeloma RPMI8226 cell growth (CellTiter-Glo); format: cell-based; details: 1 μM test compound, cultured for 8 days; for inhibition at 1 µM: Homo sapiens, RPMI-8226, 192 h, read-out: Percent inhibition of RPMI8226 cell growth (%); for Percent inhibition of RPMI8226 cell growth (%): 1 µM
In short: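 RPMI8226 cells (300/well) cultured 1 day at 37 °C, 5% CO2, then given compound at 1 μM for 8 days. ATP luminescence (CellTiter-Glo) read; percent inhibition relative to 0.1% DMSO wells.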

[2] = system: SW480 human colorectal cancer cells; test: Antitumor efficacy in mice bearing SW480 human colorectal cancer cells; format: in vivo, BALB/c female nude mice; details: oral, 14 days
Procedure: The compound of the present invention was evaluated for its antitumor efficacy in mice bearing cancer derived from SW480 human colorectal cancer cells by the following method.
SW480 human colorectal cancer cells were transplanted into 6- to 7-week-old BALB/c female nude mice (CLEA Japan) by subcutaneous injection of 2.0×10^6 cells per mouse. At 7 to 14 days after the transplantation, the size of the engrafted tumor was measured, and the tumor volume was calculated according to the following formula. Tumor volume=major axis×minor axis×minor axis×(½)
Test subjects having an engrafted tumor with a tumor volume of approximately 100 mm^3 were selected and used in the experiment (6 subjects per group). A suspension of each test compound in a 0.5% methylcellulose solution (Wako Pure Chemical Industries) was orally administered to the mice for 14 days at the dose (mg/kg, indicating the amount per dose) and the number of doses shown in Table 4. On the day before the start of the administration and the day before the completion of the administration, the tumor size was measured, and the tumor volume was calculated.
Percent tumor growth (T/C (%)) of the test compound administration group relative to the control administration group was calculated according to the following formula. T/C (%)=(tumor volume of the test compound administration group after the completion of the administration−tumor volume of the test compound administration group at the day before the start of the administration)/(tumor volume of the control administration group after the completion of the administration−tumor volume of the control administration group at the day before the start of the administration))×100

CDK8/CycC = biological target: T1, CDK8/CycC (Homo sapiens, UniProt P49336); test: CDK8 inhibitory activity (Kinase Tracer-236 / Eu-anti-GST fluorescence assay); format: binding; parameters: Percent inhibition of CDK8 activity (%): concentration or dose not given beside the values; details: test compound concentration given as '1 1.1.1\4' [sic]
T1 construct: purchased Carna Biosciences
T1 sequence (P49336 whole entry): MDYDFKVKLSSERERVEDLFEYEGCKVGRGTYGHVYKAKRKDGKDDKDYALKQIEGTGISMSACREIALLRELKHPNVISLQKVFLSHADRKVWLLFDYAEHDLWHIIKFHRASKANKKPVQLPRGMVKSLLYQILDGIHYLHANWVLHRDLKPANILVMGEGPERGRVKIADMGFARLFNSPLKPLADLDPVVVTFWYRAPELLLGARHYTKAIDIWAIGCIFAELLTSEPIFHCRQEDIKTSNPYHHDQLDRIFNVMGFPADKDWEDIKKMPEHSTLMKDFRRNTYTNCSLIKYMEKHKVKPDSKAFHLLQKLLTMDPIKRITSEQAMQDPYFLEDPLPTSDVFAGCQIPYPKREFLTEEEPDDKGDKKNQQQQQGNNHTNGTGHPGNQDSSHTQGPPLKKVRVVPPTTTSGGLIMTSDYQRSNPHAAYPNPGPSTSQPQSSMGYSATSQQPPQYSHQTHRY
T1 sequence (P24863 whole entry partner): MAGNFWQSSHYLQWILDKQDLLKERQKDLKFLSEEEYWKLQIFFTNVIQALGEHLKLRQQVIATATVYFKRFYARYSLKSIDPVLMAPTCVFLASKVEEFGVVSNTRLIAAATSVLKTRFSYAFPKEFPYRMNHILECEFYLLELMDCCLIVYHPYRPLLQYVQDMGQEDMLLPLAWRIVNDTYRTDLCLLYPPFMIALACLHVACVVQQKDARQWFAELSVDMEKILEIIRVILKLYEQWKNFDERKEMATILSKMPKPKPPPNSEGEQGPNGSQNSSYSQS
In short: (§1)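 Tracer-displacement TR-FRET binding assay: compound with kinase, Eu-cryptate anti-GST antibody and 60 nM Kinase Tracer-236 (pre-dilution level), 1 h at room temperature; ex 320 nm, em 615/665 nm. Percent inhibition is relative to no-compound control and a 10 μM control-compound blank.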

CDC2L6/CycC (CDK19) = biological target: T2, CDC2L6/CycC (CDK19) (Homo sapiens, UniProt Q9BWU1); test: CDK19 inhibitory activity (Kinase Tracer-236 / Eu-anti-GST fluorescence assay); format: binding; parameters: Percent inhibition of CDK19 activity (%): concentration or dose not given beside the values; details: test compound concentration given as '1 1.1.1\4' [sic]
T2 construct: purchased Carna Biosciences Inc
T2 sequence (Q9BWU1 whole entry): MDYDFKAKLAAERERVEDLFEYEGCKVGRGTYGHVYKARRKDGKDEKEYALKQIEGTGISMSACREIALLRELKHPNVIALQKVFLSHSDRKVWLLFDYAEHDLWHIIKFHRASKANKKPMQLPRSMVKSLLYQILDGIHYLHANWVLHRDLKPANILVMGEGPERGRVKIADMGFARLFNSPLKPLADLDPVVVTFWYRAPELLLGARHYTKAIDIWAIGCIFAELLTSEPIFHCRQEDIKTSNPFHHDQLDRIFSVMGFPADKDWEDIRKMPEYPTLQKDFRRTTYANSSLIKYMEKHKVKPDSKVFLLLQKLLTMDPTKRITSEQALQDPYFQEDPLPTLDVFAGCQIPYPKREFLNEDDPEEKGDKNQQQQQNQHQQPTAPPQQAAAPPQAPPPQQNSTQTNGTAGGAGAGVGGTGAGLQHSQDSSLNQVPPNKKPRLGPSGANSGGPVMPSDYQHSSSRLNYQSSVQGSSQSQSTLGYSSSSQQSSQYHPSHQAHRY
T2 sequence (P24863 whole entry partner): as the sequence (P24863 whole entry partner) above
In short: as §1

Percent inhibition of CDK8 activity (%) (CDK8/CycC) | Percent inhibition of CDK19 activity (%) (CDC2L6/CycC (CDK19)) | Compound | inhibition at 1 µM [1] | T/C (%) ([2]; 5 mg/kg, 1 dose per day) | T/C (%) ([2]; 15 mg/kg, 1 dose per day) | T/C (%) ([2]; 10 mg/kg, 1 dose per day) | T/C (%) ([2]; 15 mg/kg, 2 doses per day) | Percent inhibition of RPMI8226 cell growth (%) [1]
103% | 100% | COCCNC(=O)c1ccc(Oc2sc(C(N)=O)c3c2-c2sncc2CC3)cn1 [Example 18, 8-((6-((2-Methoxyethyl)carbamoyl)pyridin-3-yl)oxy)-4,5-dihydrothieno[3,4-g][1,2]benzothiazole-6-carboxamide] | 63% |  |  | 30% |  | 
106% | 100% | COCC(=O)Nc1ccc(Oc2sc(C(N)=O)c3c2-c2sncc2CC3)c(C)n1 [Example 127, 8-((6-((Methoxyacetyl)amino)-2-methylpyridin-3-yl)oxy)-4,5-dihydrothieno[3,4-g][1,2]benzothiazole-6-carboxamide] | 65% |  |  |  |  | 
100% | 98% | CNc1ccc(Oc2sc(C(N)=O)c3c2-c2sncc2CC3)cn1 [Example 129, 8-((6-(Methylamino)pyridin-3-yl)oxy)-4,5-dihydrothieno[3,4-g][1,2] benzothiazole-6-carboxamide] | 66% |  |  |  |  | 
101% | 99% | NC(=O)c1sc(Oc2ccc(NC(=O)C3CC3)nc2)c2c1CCc1cnsc1-2 [Example 130, 8-((6-((Cyclopropylcarbonyl)amino)pyridin-3-yl)oxy)-4,5-dihydrothieno [3,4-g][1,2]benzothiazole-6-carboxamide] | 66% |  |  |  |  | 
100% | 99% | CCC(=O)Nc1ccc(Oc2sc(C(N)=O)c3c2-c2sncc2CC3)cn1 [Example 134, 8-((6-(Propionylamino)pyridin-3-yl)oxy)-4,5-dihydrothieno[3,4-g][1,2] benzothiazole-6-carboxamide] | 59% |  |  |  |  | 
109% | 97% | CC(=O)N(C)c1ccc(Oc2sc(C(N)=O)c3c2-c2sncc2CC3)cn1 [Example 135, 8-((6-(Acetyl(methyl)amino)pyridin-3-yl)oxy)-4,5-dihydrothieno[3,4-g][1,2] benzothiazole-6-carboxamide] | 55% |  |  |  |  | 
107% | 102% | CCOC(=O)Nc1ccc(Oc2sc(C(N)=O)c3c2-c2sncc2CC3)c(C)n1 [Example 136, Ethyl (5-((6-carbamoyl-4,5-dihydrothieno[3,4-g][1,2]benzothiazol-8-yl)oxy)-6-methylpyridin-2-yl) carbamate] | 66% |  |  |  |  | 

The next lines start with the compound.

Compound | Percent inhibition of CDK8 activity (%) (CDK8/CycC) | Percent inhibition of CDK19 activity (%) (CDC2L6/CycC (CDK19)) | inhibition at 1 µM [1] | T/C (%) ([2]; 5 mg/kg, 1 dose per day) | T/C (%) ([2]; 15 mg/kg, 1 dose per day) | T/C (%) ([2]; 10 mg/kg, 1 dose per day) | T/C (%) ([2]; 15 mg/kg, 2 doses per day) | Percent inhibition of RPMI8226 cell growth (%) [1]
Cc1c(Oc2sc(C(N)=O)c3c2-c2sncc2CC3)ccc[n+]1[O-] [Example 9, 8-((2-Methyl-1-oxidopyridin-3-yl)oxy)-4,5-dihydrothieno[3,4-g][1,2]benzothiazole-6-carboxamide] | 97% | 98% | 63% | 30% |  |  |  | 
NC(=O)c1ccc(Oc2sc(C(N)=O)c3c2-c2sncc2CC3)cn1 [Example 13, 8-((6-Carbamoylpyridin-3-yl)oxy)-4,5-dihydrothieno[3,4-g][1,2]benzothiazole-6-carboxamide] | 97% | 98% | 69% |  | 50% |  |  | 
Cc1nc(C(=O)NCC(C)(C)O)ccc1Oc1sc(C(N)=O)c2c1-c1sncc1CC2 [Example 24, 8-((6-((2-Hydroxy-2-methylpropyl)carbamoyl)-2-methylpyridin-3-yl)oxy)-4,5-dihydrothieno[3,4-g][1,2]benzothiazole-6-carboxamide] | 102% | 99% | 64% |  |  | 32% |  | 
Cc1nn(C)c(C)c1Oc1sc(C(N)=O)c2c1-c1sncc1CC2 [Example 32, 8-((1,3,5-Trimethyl-1H-pyrazol-4-yl)oxy)-4,5-dihydrothieno[3,4-g][1,2]benzothiazole-6-carboxamide] | 107% | 100% | 63% |  |  |  | 36% | 
COCC(=O)N(C)c1ccc(Oc2sc(C(N)=O)c3c2-c2sncc2CC3)c(C)n1 [Example 126, 8-((6-((Methoxyacetyl)(methyl)amino)-2-methylpyridin-3-yl)oxy)-4,5-dihydrothieno[3,4-g][1,2]benzothiazole-6-carboxamide] | 103% | 102% | 67% |  |  |  |  | 
CC(=O)Nc1ccc(Oc2sc(C(N)=O)c3c2-c2sncc2CC3)c(C)n1 [Example 128, 8-((6-Acetamido-2-methylpyridin-3-yl)oxy)-4,5-dihydrothieno[3,4-g][1,2] benzothiazole-6-carboxamide] | 98% | 102% | 70% |  |  |  |  | 
Cc1nc(C(N)=O)ccc1Oc1sc(C(N)=O)c2c1-c1sncc1CC2 [Example 131, 8-((6-Carbamoyl-2-methylpyridin-3-yl)oxy)-4,5-dihydrothieno[3,4-g][1,2] benzothiazole-6-carboxamide] | 101% | 102% | 73% |  |  |  |  | 
NC(=O)c1sc(Oc2cccnc2)c2c1CCc1cnsc1-2 [Example 132, 8-(Pyridin-3-yloxy)-4,5-dihydrothieno [3,4-g][1,2]benzothiazole-6-carboxamide] | 102% | 97% | 61% |  |  |  |  | 
CCC(=O)Nc1ccc(Oc2sc(C(N)=O)c3c2-c2sncc2CC3)c(C)n1 [Example 133, 8-((2-Methyl-6-(propionylamino)pyridin-3-yl)oxy)-4,5-dihydrothieno [3,4-g][1,2]benzothiazole-6-carboxamide] | 110% | 101% | 63% |  |  |  |  | 
COCCNC(=O)c1ccc(Oc2sc(C(N)=O)c3c2-c2sncc2CC3)cn1 [Example 138, 8-((6-((2-Methoxyethyl)carbamoyl)pyridin-3-yl)oxy)-4,5-dihydrothieno[3,4-g][1,2]benzothiazole-6-carboxamide fumaric acid (1:1)] | 103% | 100% |  |  |  |  |  | 69%
COCCNC(=O)c1ccc(Oc2sc(C(N)=O)c3c2-c2sncc2CC3)cn1 [Example 139, 8-((6-((2-Methoxyethyl)carbamoyl)pyridin-3-yl)oxy)-4,5-dihydrothieno[3,4-g][1,2]benzothiazole-6-carboxamide succinic acid (1:1)] | 103% | 100% |  |  |  |  |  | 71%
